Results as given in the SangsterLogP compilation.

assay: method code SF, from DOI: 10.1007/978-3-0348-5795-6_10, PMID: 954948

| Structure (SMILES) | logP |
| --- | --- |
| S=C=Nc1ccc(Oc2ccccc2)cc1 | 4.75 |
| Oc1ccc(N=C=S)cc1 | 2.74 |
| O=C(Oc1ccc(N=C=S)cc1)c1ccccc1 | 4.9 |
| S=C=Nc1cccc2ccccc12 | 4.34 |
| S=C=NC(c1ccccc1)c1ccccc1 | 5.09 |
| O=C(c1ccccc1)c1ccc(N=C=S)cc1 | 4.88 |
| S=C=NCCc1ccccc1 | 3.47 |
| S=C=Nc1ccc(-c2ccccc2)cc1 | 4.66 |
| S=C=Nc1ccc2ccccc2c1 | 4.34 |
| S=C=Nc1ccc(Cc2ccccc2)cc1 | 4.4 |
| S=C=NCc1cccc2ccccc12 | 4.42 |
| S=C=NCc1ccccc1 | 3.16 |
| CC(N=C=S)c1ccccc1 (centres undefined) | 3.46 |
| S=C=Nc1ccc(/N=N/c2ccccc2)cc1 | 5.55 |
| S=C=NC(c1ccccc1)(c1ccccc1)c1ccccc1 | 7.02 |
| S=C=Nc1ccc2cc3ccccc3cc2c1 | 5.7 |
| O=S(c1ccccc1)c1ccc(N=C=S)cc1 (centres undefined) | 4.4 |
| S=C=Nc1ccc(Nc2ccccc2)cc1 | 4.94 |
| CCN=C=S | 1.47 |
